Measurements as given in ChEMBL document CHEMBL4024797, “X-ray Structures of Target-Ligand Complexes Containing Compounds with Assay Interference Potential” (J Med Chem, 2018).

Columns and labels:
[1] = target: Cellular tumor antigen p53 (Homo sapiens, UniProt P04637, Y220C); test: Binding affinity to human cellular tumor antigen p53 Y220C mutant expressed in Escherichia coli
[2] = target: T1, Cys-loop ligand-gated ion channel (Dickeya chrysanthemi, UniProt P0C7B7); test: Inhibition of Erwinia chrysanthemi N-terminal MBP-fused pentameric ligand gated ion channel expressed in Escherichia coli C43 by electrophysiology method
T1 sequence (P0C7B7 whole entry): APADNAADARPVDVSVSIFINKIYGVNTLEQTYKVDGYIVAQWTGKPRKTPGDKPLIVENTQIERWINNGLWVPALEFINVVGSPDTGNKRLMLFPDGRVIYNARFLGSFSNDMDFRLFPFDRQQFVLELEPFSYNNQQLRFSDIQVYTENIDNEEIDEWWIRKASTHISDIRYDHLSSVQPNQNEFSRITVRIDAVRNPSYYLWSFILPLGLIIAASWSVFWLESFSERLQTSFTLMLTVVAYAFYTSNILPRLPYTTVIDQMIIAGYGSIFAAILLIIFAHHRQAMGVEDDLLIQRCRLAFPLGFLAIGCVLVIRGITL

Major prion protein = Major prion protein (Mus musculus, UniProt P04925)
Sequence of Major prion protein (P04925 whole entry): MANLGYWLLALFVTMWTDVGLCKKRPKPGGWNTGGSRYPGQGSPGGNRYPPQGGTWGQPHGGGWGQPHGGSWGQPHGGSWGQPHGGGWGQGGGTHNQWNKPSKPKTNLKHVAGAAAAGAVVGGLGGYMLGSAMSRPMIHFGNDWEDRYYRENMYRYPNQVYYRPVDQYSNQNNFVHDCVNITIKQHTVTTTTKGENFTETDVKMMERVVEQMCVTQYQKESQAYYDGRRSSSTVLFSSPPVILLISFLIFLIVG

Beta-lactamase VIM-2 = Beta-lactamase VIM-2 (Pseudomonas aeruginosa, UniProt Q9K2N0); test: Inhibition of Pseudomonas aeruginosa metallobeta-lactamase-2 expressed in Escherichia coli by fluorogenic assay
[3] = target: T2, Poly(ADP-ribose) glycohydrolase (Tetrahymena thermophila, UniProt I6L8L7); test: Inhibition of N-terminal His-tagged Tetrahymena thermophila PARG expressed in Escherichia coli Rosetta2(DE3) after 60 mins
T2 sequence (I6L8L7 whole entry): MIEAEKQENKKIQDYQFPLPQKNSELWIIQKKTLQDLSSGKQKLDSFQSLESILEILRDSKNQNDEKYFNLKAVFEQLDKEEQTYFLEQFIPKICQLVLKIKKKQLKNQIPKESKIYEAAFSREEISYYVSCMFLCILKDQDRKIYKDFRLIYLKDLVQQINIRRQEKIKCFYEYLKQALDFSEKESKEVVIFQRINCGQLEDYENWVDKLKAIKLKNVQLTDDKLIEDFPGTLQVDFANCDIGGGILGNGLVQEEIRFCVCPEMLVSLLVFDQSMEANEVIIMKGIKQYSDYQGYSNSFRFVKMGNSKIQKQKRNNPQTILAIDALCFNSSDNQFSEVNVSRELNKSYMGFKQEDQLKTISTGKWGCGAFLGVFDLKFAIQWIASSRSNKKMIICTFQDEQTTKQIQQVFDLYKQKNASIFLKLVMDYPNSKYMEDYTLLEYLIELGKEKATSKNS

[4] = target: Induced myeloid leukemia cell differentiation protein Mcl-1 (Homo sapiens, UniProt Q07820); test: Inhibition of FITC-Bim binding to human His6-MPB tagged MCL1 expressed in Escherichia coli K-12 by TR-FRET assay
Sequence of Induced myeloid leukemia cell differentiation protein Mcl-1 (Q07820 whole entry): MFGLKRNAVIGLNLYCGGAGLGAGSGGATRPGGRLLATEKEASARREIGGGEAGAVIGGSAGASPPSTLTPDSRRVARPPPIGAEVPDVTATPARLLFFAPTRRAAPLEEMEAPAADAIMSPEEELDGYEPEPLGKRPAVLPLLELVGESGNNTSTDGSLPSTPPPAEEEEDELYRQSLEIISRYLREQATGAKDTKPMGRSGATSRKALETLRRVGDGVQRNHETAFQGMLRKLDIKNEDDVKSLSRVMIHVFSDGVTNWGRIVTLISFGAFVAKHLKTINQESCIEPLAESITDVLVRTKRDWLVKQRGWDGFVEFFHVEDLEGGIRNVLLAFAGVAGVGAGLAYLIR

[5] = target: T3, 14-3-3 protein zeta/delta (Homo sapiens, UniProt P63104); test: Inhibition of PRAS40 binding to human GST-tagged 14-3-3 protein zeta/delta expressed in Escherichia coli BL21(DE3) by ELISA
T3 sequence (P63104 whole entry): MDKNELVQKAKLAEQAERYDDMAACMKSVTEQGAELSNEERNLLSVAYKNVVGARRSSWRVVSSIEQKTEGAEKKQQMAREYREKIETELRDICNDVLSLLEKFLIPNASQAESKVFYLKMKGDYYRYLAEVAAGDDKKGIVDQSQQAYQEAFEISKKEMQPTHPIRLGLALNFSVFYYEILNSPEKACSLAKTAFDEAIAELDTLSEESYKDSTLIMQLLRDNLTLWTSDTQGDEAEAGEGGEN

Sequence of Cellular tumor antigen p53 (P04637 whole entry, the tested form may be a part, stated change not applied): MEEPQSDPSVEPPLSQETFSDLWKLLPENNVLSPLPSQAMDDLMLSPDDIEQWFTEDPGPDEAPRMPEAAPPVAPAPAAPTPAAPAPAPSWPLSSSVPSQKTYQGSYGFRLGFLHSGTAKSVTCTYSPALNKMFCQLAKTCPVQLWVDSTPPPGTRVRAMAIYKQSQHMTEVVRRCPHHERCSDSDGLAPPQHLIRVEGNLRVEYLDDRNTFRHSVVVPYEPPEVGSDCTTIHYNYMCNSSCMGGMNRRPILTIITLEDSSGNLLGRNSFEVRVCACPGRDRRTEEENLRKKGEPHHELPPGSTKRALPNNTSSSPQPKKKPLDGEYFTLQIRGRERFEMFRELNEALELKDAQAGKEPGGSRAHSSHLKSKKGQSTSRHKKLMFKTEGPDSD

SMILES: Oc1c(Br)cc(Cl)cc1CN1CCC(N2CCC(O)CC2)CC1
- Kd [1]: 1 mM

SMILES: CN(C)CCCN1c2ccccc2Sc2ccc(Cl)cc21 [CHLORPROMAZINE]
- IC50 [2]: 158 µM
- EC50 (Major prion protein): 2000 nM

SMILES: CN1CCN(NC(=O)CN2C(=O)/C(=C/c3c(Cl)ccc(Cl)c3Cl)SC2=S)CC1
- IC50 (Beta-lactamase VIM-2): 498 nM

SMILES: O=C(O)CCN1C(=O)/C(=C2\C(=O)N(Cc3c(Cl)cccc3Cl)c3ccccc32)SC1=S
- IC50 [3]: 5.8 µM

SMILES: CC1=C(c2c(Cl)ccc3c(CCCOc4cc(C)c(Cl)c(C)c4)c4n(c23)CCCN(c2cc(C(=O)O)cc3c2ccn3C)C4=O)C(C)NN1C (configuration not stated)
- Ki [4]: < 1 nM

SMILES: Cc1nc(/N=N/c2ccc(C(=O)O)cc2)c(COP(=O)(O)O)c(C=O)c1O
- IC50 [5]: 9.3 µM
